pIC50: −log10 of the molar value.
System: 519858-162-T-J1-PDC complex spheroid growth, % test/control
Experiment: Anticancer human tumor 519858-162-T-J1-PDC patient-derived colon adenocarcinoma cell line growth inhibition [Asc]
Conditions: for pIC50: curve of first compound; for viability, T/C: stronger effect = lower value; active means viability on the fitted dose curve at most 10% of control; inactive means the rest
Method: Multicellular complex tumor spheroid response to apoptosis pathway targeting inhibitors Alrizomadlin, Pelcitoclax, and Dasminapant in combination with a variety of drugs and investigational agents in selected tumor cell lines
The MDM2 inhibitor alrizomadlin, the Bcl-2/Bcl-xL inhibitor pelcitoclax, and the IAPs inhibitor dasminapant were evaluated both individually and in combination with standard of care and investigational anticancer small molecules within a complex spheroid model of solid tumors. . Complex spheroids include a stromal component modeled by human endothelial cells (HUVEC) and fibroblasts modeled by human mesenchymal stem cells (MSCs). The concentration ranges selected for each drug and investigational agent were based upon clinically achievable concentrations if the clinical Cmax of the agent was known.
Compounds. The drugs and investigational agents: alrizomadlin (APG-115; NSC831270), pelcitoclax (APG-1252; NSC835773), dasminapant (APG-1387;NSC834197), TAK-243 (NSC785004), copanlisib (NSC809693), olaparib (NSC753686), talazoparib (NSC767125), cobimetinib (NSC 768068), eltanexor (KPT-8602, NSC 794443), abemaciclib (NSC 768073), sotorasib (NSC818433), adagrasib (NSC 831453), MRTX-1133 (NSC 836407), Iadademestat (ORY1001, NSC 806812), and RMC-4630 (NSC839698), were obtained from the NCI Developmental Therapeutics Program Chemical Repository. The FDA-approved anticancer drug set is available from the Developmental Therapeutics Program at https://dtp.cancer.gov/organization/dscb/obtaining/available plates.htm. […] The stock solutions were prepared in dimethyl sulfoxide (DMSO, Sigma-Aldrich, St. Louis, MO, cat. D2650) at 800-fold the tested concentration and stored at -70 degrees C prior to their use. All drugs and investigational agents were tested over a range starting from a high concentration at or near the clinical Cmax and decreasing in half-log increments. If the clinical Cmax for an agent had not been determined, the highest concentration tested was 10 microM.
The patient-derived cancer (PDC) cell lines include five colon adenocarcinomas: 186277-243-T-J2-PDC, 616215-338-R-J1-PDC, 439559-082-T-J2-PDC, 463943-066-T-J2-PDC, and 519858-162-T-J1-PDC; three pancreatic carcinomas: 323965-272-R-J2-PDC, 521955-158-R6-J3-PDC, and 521955-158-R2-J5-PDC; two uterine sarcomas: 327498-152-R-J2-PDC and 993429-296-R-J1-PDC; two rhabdomyosarcomas: 755483-174-R-J1-PDC and 772245-204-R-J1-PDC; two soft tissue sarcomas: 126254-015-R-J1-PDC and 494315-158-R-J1-PDC; two malignant fibrous histiocytomas: 317291-083-R-J1-PDC and 596521-263-R-J1-PDC; two breast carcinomas: 171881-019-R-J1-PDC and 885512-296-R-J2-PDC; and one ovarian carcinoma: 6556581-035-R-J-PDC were obtained from the NCI PDMR, (https://pdmr.cancer.gov). The established cell lines HSSY-2 synovial sarcoma (RRID:CVCL 8719), SYO-1 synovial sarcoma (RRID:CVCL_7146), MPNST malignant peripheral neural sheath tumor were obtained from the Sloan Kettering Institute. The following established cell lines were purchased from the American Type Culture Collection (ATCC, Manassas, VA), Sor the received from the NCI repository:, PANC-1 pancreatic carcinoma (CRL-1469, RRID:CVCL_0480), OVCAR-5 ovarian carcinoma (RRID:CVCL_1628), OVCAR-8 ovarian carcinoma (RRID:CVCL_1629), , MCF-7 breast carcinoma (CRL-12584, RRID:CVCL_0031), MDA-MB-231 breast carcinoma (CRL-12532, RRID:CVCL_0062), NCI-H1876 small cell lung carcinoma (CRL-5902, RRID:CVCL_1503), NCI-H510A small cell lung carcinoma (HTB-184, RRID:CVCL_1565), NCI-H1417 (CRL-5869, RRID:CVCL_1469), and NCI-H196 small cell lung carcinoma (CRL-5823, RRID:CVCL_1509). Dr. Peter Houghton (Greehey Children's Cancer Research Institute, University of Texas Health Science Center, San Antonio, TX) provided Rh-18 rhabdomyosarcoma (RRID:CVCL_1659). Pooled donor human umbilical vein endothelial cells (HUVEC, Lonza, cat. CC-2519) and human mesenchymal stem cells (hMSC, Lonza, cat. PT-2501) were purchased from Lonza (Walkersville, MD).
Cell Culture. […]

[1] = second compound 0.00949 µM, first compound 0.00316 µM
[2] = second compound 0.00949 µM, first compound 0.01 µM
[3] = second compound 0.00949 µM, first compound 0.0316 µM
[4] = second compound 0.00949 µM, first compound 0.1 µM
[5] = second compound 0.00949 µM, first compound 0.316 µM
[6] = second compound 0.00949 µM, first compound 1 µM
[7] = second compound 0.03 µM, first compound 0.00316 µM
[8] = second compound 0.03 µM, first compound 0.01 µM
[9] = second compound 0.03 µM, first compound 0.0316 µM
[10] = second compound 0.03 µM, first compound 0.1 µM
[11] = second compound 0.03 µM, first compound 0.316 µM
[12] = second compound 0.03 µM, first compound 1 µM
[13] = second compound 0.0949 µM, first compound 0.00316 µM
[14] = second compound 0.0949 µM, first compound 0.01 µM
[15] = second compound 0.0949 µM, first compound 0.0316 µM
[16] = second compound 0.0949 µM, first compound 0.1 µM
[17] = second compound 0.0949 µM, first compound 0.316 µM
[18] = second compound 0.0949 µM, first compound 1 µM
[19] = second compound 0.3 µM, first compound 0.00316 µM
[20] = second compound 0.3 µM, first compound 0.01 µM
[21] = second compound 0.3 µM, first compound 0.0316 µM
[22] = second compound 0.3 µM, first compound 0.1 µM
[23] = second compound 0.3 µM, first compound 0.316 µM
[24] = second compound 0.3 µM, first compound 1 µM
[25] = second compound 0.949 µM, first compound 0.00316 µM
[26] = second compound 0.949 µM, first compound 0.01 µM
[27] = second compound 0.949 µM, first compound 0.0316 µM
[28] = second compound 0.949 µM, first compound 0.1 µM
[29] = second compound 0.949 µM, first compound 0.316 µM
[30] = second compound 0.949 µM, first compound 1 µM
[31] = second compound 3 µM, first compound 0.00316 µM
[32] = second compound 3 µM, first compound 0.01 µM
[33] = second compound 3 µM, first compound 0.0316 µM
[34] = second compound 3 µM, first compound 0.1 µM
[35] = second compound 3 µM, first compound 0.316 µM
[36] = second compound 3 µM, first compound 1 µM
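Further: seven day drug exposure begun three days after spheroid seeding.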
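Wherever viability, T/C is given: 100% = DMSO vehicle wells and lower values mean less viable spheroid.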

CCN1CCN(Cc2ccc(Nc3ncc(F)c(-c4cc(F)c5nc(C)n(C(C)C)c5c4)n3)nc2)CC1 + CCN1C(C(=O)NC23CCC(C(=O)O)(CC2)CC3)C(c2cccc(Cl)c2F)C2(C(=O)Nc3cc(Cl)ccc32)C12CCCCC2
inactive: viability, T/C [1] 85.7% | viability, T/C [2] 89.3% | viability, T/C [3] 76.2% | viability, T/C [4] 88.8% | viability, T/C [5] 60.2% | viability, T/C [6] 71% | viability, T/C [7] 124% | viability, T/C [8] 84.4% | viability, T/C [9] 91.5% | viability, T/C [10] 105% | viability, T/C [11] 93.4% | viability, T/C [12] 76.9% | viability, T/C [13] 99.8% | viability, T/C [14] 95.7% | viability, T/C [15] 86.2% | viability, T/C [16] 81.7% | viability, T/C [17] 67.7% | viability, T/C [18] 58.8% | viability, T/C [19] 97.6% | viability, T/C [20] 83.5% | viability, T/C [21] 69.1% | viability, T/C [22] 61.9% | viability, T/C [23] 64.2% | viability, T/C [24] 104% | viability, T/C [25] 87.4% | viability, T/C [26] 72.6% | viability, T/C [27] 84.8% | viability, T/C [28] 80.9% | viability, T/C [29] 81.2% | viability, T/C [30] 63% | viability, T/C [31] 71.4% | viability, T/C [32] 69.9% | viability, T/C [33] 78.6% | viability, T/C [34] 89.2% | viability, T/C [35] 72.7% | viability, T/C [36] 66.4%
< 6.00: pIC50 (second compound 0.00949 µM) | pIC50 (second compound 0.03 µM) | pIC50 (second compound 0.0949 µM) | pIC50 (second compound 0.3 µM) | pIC50 (second compound 0.949 µM) | pIC50 (second compound 3 µM)

O=C(c1ccc(F)c(F)c1Nc1ccc(I)cc1F)N1CC(O)([C@@H]2CCCCN2)C1 + CCN1C(C(=O)NC23CCC(C(=O)O)(CC2)CC3)C(c2cccc(Cl)c2F)C2(C(=O)Nc3cc(Cl)ccc32)C12CCCCC2
6.89: pIC50 (second compound 0.03 µM)
6.67: pIC50 (second compound 0.00949 µM)
inactive: viability, T/C [1] 57.3% | viability, T/C [2] 86.8% | viability, T/C [3] 88.8% | viability, T/C [4] 116% | viability, T/C [5] 30.6% | viability, T/C [6] 19.1% | viability, T/C [7] 126% | viability, T/C [8] 91.1% | viability, T/C [9] 93.1% | viability, T/C [10] 56% | viability, T/C [11] 42.5% | viability, T/C [12] 17.6% | viability, T/C [13] 105% | viability, T/C [14] 115% | viability, T/C [15] 64.8% | viability, T/C [16] 79.9% | viability, T/C [17] 36.1% | viability, T/C [18] 15.5% | viability, T/C [19] 90.5% | viability, T/C [20] 90% | viability, T/C [21] 66.1% | viability, T/C [22] 91.8% | viability, T/C [23] 41.1% | viability, T/C [24] 17.2% | viability, T/C [25] 81% | viability, T/C [26] 64% | viability, T/C [27] 73% | viability, T/C [28] 70.1% | viability, T/C [29] 44.3% | viability, T/C [30] 21.9% | viability, T/C [31] 68.4% | viability, T/C [32] 104% | viability, T/C [33] 46.3% | viability, T/C [34] 65.7% | viability, T/C [35] 39.5% | viability, T/C [36] 14.3%
6.68: pIC50 (second compound 0.0949 µM)
6.78: pIC50 (second compound 3 µM)
6.61: pIC50 (second compound 0.949 µM)
6.60: pIC50 (second compound 0.3 µM)

— PubChem BioAssay AID1963421 (Molecular Pharmacology Branch, DTP, NCI, 2024)
